# Experimental data published in ChEMBL document CHEMBL1201862, “PubChem BioAssay data set” (2004).
#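 Cells were grown in 96-well plates and exposed to each compound for 48 hours at five concentrations; endpoints were interpolated linearly between bracketing concentrations, or set to the highest concentration if not reached. GI50 is the concentration that inhibits growth by half.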 Calls of active or inactive are those of the source. Rule as the data show it: active = GI50 up to about 1.1 µM and inactive = higher.
# Columns and labels:
# Test in all cases: NCI anticancer screen, dose series, 48 h
# 786-0 = tested on: 786-0
# A549 = tested on: A549
# ACHN = tested on: ACHN
# BT-549 = tested on: BT-549
# CAKI-1 = tested on: CAKI-1
# CCRF-CEM = tested on: CCRF-CEM
# COLO 205 = tested on: COLO 205
# DU-145 = tested on: DU-145
# EKVX = tested on: EKVX
# HCC 2998 = tested on: HCC 2998
# HCT-116 = tested on: HCT-116
# HCT-15 = tested on: HCT-15
# HL-60 = tested on: HL-60
# HOP-62 = tested on: HOP-62
# HT-29 = tested on: HT-29
# IGROV-1 = tested on: IGROV-1
# K562 = tested on: K562
# KM12 = tested on: KM12
# LOX IMVI = tested on: LOX IMVI
# M14 = tested on: M14
# MCF7 = tested on: MCF7
# MDA-MB-231 = tested on: MDA-MB-231
# MDA-MB-435 = tested on: MDA-MB-435
# MDA-N = tested on: MDA-N
# MOLT-4 = tested on: MOLT-4
# Malme-3M = tested on: Malme-3M
# NCI-H226 = tested on: NCI-H226
# NCI-H23 = tested on: NCI-H23
# NCI-H522 = tested on: NCI-H522
# NCI/ADR-RES = tested on: NCI/ADR-RES
# OVCAR-3 = tested on: OVCAR-3
# OVCAR-5 = tested on: OVCAR-5
# OVCAR-8 = tested on: OVCAR-8
# PC-3 = tested on: PC-3
# RPMI-8226 = tested on: RPMI-8226
# RXF 393 = tested on: RXF 393
# SF-268 = tested on: SF-268
# SF-295 = tested on: SF-295
# SF-539 = tested on: SF-539
# SK-MEL-28 = tested on: SK-MEL-28
# SK-MEL-5 = tested on: SK-MEL-5
# SK-OV-3 = tested on: SK-OV-3
# SN12C = tested on: SN12C
# SNB-19 = tested on: SNB-19
# SNB-75 = tested on: SNB-75
# SR = tested on: SR
# SW-620 = tested on: SW-620
# T47D = tested on: T47D
# TK-10 = tested on: TK-10
# U-251 = tested on: U-251
# UACC-257 = tested on: UACC-257
# UACC-62 = tested on: UACC-62
# UO-31 = tested on: UO-31
# A498 = tested on: A498
# HOP-92 = tested on: HOP-92
# NCI-H460 = tested on: NCI-H460
# OVCAR-4 = tested on: OVCAR-4
# Hs-578T = tested on: Hs-578T
# SK-MEL-2 = tested on: SK-MEL-2
compound,measurement,setting,value
CN1CN(c2ccccc2)C2(CCN(Cc3csc4ccccc34)CC2)C1=O,GI50,786-0,19.4 µM (inactive)
same,GI50,A549,18.6 µM (inactive)
same,GI50,ACHN,17.6 µM (inactive)
same,GI50,BT-549,7.35 µM (inactive)
same,GI50,CAKI-1,7.45 µM (inactive)
same,GI50,CCRF-CEM,17.5 µM (inactive)
same,GI50,COLO 205,11.1 µM (inactive)
same,GI50,DU-145,49.2 µM (inactive)
same,GI50,EKVX,7.53 µM (inactive)
same,GI50,HCC 2998,13.4 µM (inactive)
same,GI50,HCT-116,5.35 µM (inactive)
same,GI50,HCT-15,14.5 µM
same,GI50,HL-60,4.39 µM (inactive)
same,GI50,HOP-62,19.6 µM (inactive)
same,GI50,HT-29,4.83 µM (inactive)
same,GI50,IGROV-1,10.8 µM (inactive)
same,GI50,K562,5.45 µM (inactive)
same,GI50,KM12,11.5 µM (inactive)
same,GI50,LOX IMVI,11.8 µM (inactive)
same,GI50,M14,13.7 µM (inactive)
same,GI50,MCF7,11.6 µM (inactive)
same,GI50,MDA-MB-231,> 10 µM (inactive)
same,GI50,MDA-MB-435,14.3 µM (inactive)
same,GI50,MDA-N,15.2 µM (inactive)
same,GI50,MOLT-4,4.32 µM (inactive)
same,GI50,Malme-3M,17.2 µM (inactive)
same,GI50,NCI-H226,21 µM (inactive)
same,GI50,NCI-H23,6.44 µM (inactive)
same,GI50,NCI-H522,9.23 µM (inactive)
same,GI50,NCI/ADR-RES,8.97 µM (inactive)
same,GI50,OVCAR-3,8.85 µM (inactive)
same,GI50,OVCAR-5,1.63 µM (inactive)
same,GI50,OVCAR-8,16.2 µM (inactive)
same,GI50,PC-3,9.27 µM (inactive)
same,GI50,RPMI-8226,2.16 µM (inactive)
same,GI50,RXF 393,16.6 µM (inactive)
same,GI50,SF-268,22.3 µM (inactive)
same,GI50,SF-295,11.8 µM (inactive)
same,GI50,SF-539,15.1 µM (inactive)
same,GI50,SK-MEL-28,22.1 µM (inactive)
same,GI50,SK-MEL-5,7.78 µM (inactive)
same,GI50,SK-OV-3,38.2 µM (inactive)
same,GI50,SN12C,13.5 µM (inactive)
same,GI50,SNB-19,38.4 µM (inactive)
same,GI50,SNB-75,23.7 µM (inactive)
same,GI50,SR,4.45 µM (inactive)
same,GI50,SW-620,13.3 µM (inactive)
same,GI50,T47D,5.11 µM (inactive)
same,GI50,TK-10,12.9 µM (inactive)
same,GI50,U-251,8.55 µM (inactive)
same,GI50,UACC-257,13.2 µM (inactive)
same,GI50,UACC-62,22.8 µM (inactive)
same,GI50,UO-31,3.71 µM (inactive)
COC(=O)C(Cc1cn(C(C)=O)c2ccccc12)P(=O)(OC)OC (stereo unspecified),GI50,A498,> 100 µM (inactive)
same,GI50,A549,> 100 µM (inactive)
same,GI50,ACHN,> 100 µM (inactive)
same,GI50,BT-549,> 100 µM (inactive)
same,GI50,CAKI-1,> 100 µM (inactive)
same,GI50,CCRF-CEM,> 100 µM (inactive)
same,GI50,COLO 205,> 100 µM (inactive)
same,GI50,DU-145,> 100 µM (inactive)
same,GI50,HCC 2998,> 100 µM (inactive)
same,GI50,HCT-116,> 100 µM (inactive)
same,GI50,HCT-15,> 100 µM
same,GI50,HL-60,> 100 µM (inactive)
same,GI50,HOP-92,> 100 µM (inactive)
same,GI50,HT-29,> 100 µM (inactive)
same,GI50,IGROV-1,> 100 µM (inactive)
same,GI50,K562,> 100 µM (inactive)
same,GI50,KM12,> 100 µM (inactive)
same,GI50,M14,> 100 µM (inactive)
same,GI50,MCF7,20.7 µM (inactive)
same,GI50,MDA-MB-231,> 100 µM (inactive)
same,GI50,MDA-MB-435,> 100 µM (inactive)
same,GI50,MDA-N,> 100 µM (inactive)
same,GI50,NCI-H226,> 100 µM (inactive)
same,GI50,NCI-H23,> 100 µM (inactive)
same,GI50,NCI-H460,> 100 µM (inactive)
same,GI50,NCI-H522,> 100 µM (inactive)
same,GI50,NCI/ADR-RES,> 100 µM (inactive)
same,GI50,OVCAR-3,> 100 µM (inactive)
same,GI50,OVCAR-4,> 100 µM (inactive)
same,GI50,OVCAR-5,95.3 µM (inactive)
same,GI50,OVCAR-8,> 100 µM (inactive)
same,GI50,PC-3,> 100 µM (inactive)
same,GI50,RPMI-8226,> 100 µM (inactive)
same,GI50,RXF 393,> 100 µM (inactive)
same,GI50,SF-268,> 100 µM (inactive)
same,GI50,SF-295,> 100 µM (inactive)
same,GI50,SF-539,> 100 µM (inactive)
same,GI50,SK-MEL-28,> 100 µM (inactive)
same,GI50,SK-MEL-5,> 100 µM (inactive)
same,GI50,SN12C,> 100 µM (inactive)
same,GI50,SNB-19,> 100 µM (inactive)
same,GI50,SNB-75,60.3 µM (inactive)
same,GI50,SR,> 100 µM (inactive)
same,GI50,SW-620,> 100 µM (inactive)
same,GI50,T47D,> 100 µM (inactive)
same,GI50,TK-10,> 100 µM (inactive)
same,GI50,U-251,> 100 µM (inactive)
same,GI50,UACC-257,> 100 µM (inactive)
same,GI50,UACC-62,> 100 µM (inactive)
same,GI50,UO-31,72.9 µM (inactive)
CC(C)(C)c1cc(C(=O)/C=C/c2ccc3c(c2)CCO3)cc(C(C)(C)C)c1O,GI50,786-0,1.12 µM (active)
same,GI50,A498,1.12 µM (active)
same,GI50,A549,1.63 µM (inactive)
same,GI50,ACHN,1.69 µM (inactive)
same,GI50,BT-549,1.8 µM (inactive)
same,GI50,CAKI-1,0.724 µM (active)
same,GI50,CCRF-CEM,1.07 µM (active)
same,GI50,COLO 205,0.701 µM (active)
same,GI50,DU-145,1.39 µM (inactive)
same,GI50,EKVX,0.729 µM (active)
same,GI50,HCC 2998,1.89 µM (inactive)
same,GI50,HCT-116,1.2 µM (inactive)
same,GI50,HCT-15,1.04 µM
same,GI50,HL-60,0.951 µM (active)
same,GI50,HOP-62,4.15 µM (inactive)
same,GI50,HOP-92,16.2 µM (inactive)
same,GI50,HT-29,1.04 µM (active)
same,GI50,Hs-578T,1.32 µM (inactive)
same,GI50,IGROV-1,2.29 µM (inactive)
same,GI50,K562,0.938 µM (active)
same,GI50,KM12,0.49 µM (active)
same,GI50,LOX IMVI,1.57 µM (inactive)
same,GI50,M14,1.17 µM (inactive)
same,GI50,MCF7,1.23 µM (inactive)
same,GI50,MDA-MB-231,2.28 µM (inactive)
same,GI50,MDA-MB-435,0.327 µM (active)
same,GI50,MOLT-4,2.42 µM (inactive)
same,GI50,Malme-3M,> 100 µM (inactive)
same,GI50,NCI-H226,2.24 µM (inactive)
same,GI50,NCI-H23,1.14 µM (inactive)
same,GI50,NCI-H460,0.76 µM (active)
same,GI50,NCI-H522,0.323 µM (active)
same,GI50,NCI/ADR-RES,0.614 µM (active)
same,GI50,OVCAR-3,5.07 µM (inactive)
same,GI50,OVCAR-4,0.869 µM (active)
same,GI50,OVCAR-5,2.39 µM (inactive)
same,GI50,OVCAR-8,1.63 µM (inactive)
same,GI50,PC-3,0.891 µM (active)
same,GI50,RPMI-8226,0.984 µM (active)
same,GI50,RXF 393,0.216 µM (active)
same,GI50,SF-268,2.58 µM (inactive)
same,GI50,SF-295,1.69 µM (inactive)
same,GI50,SF-539,0.619 µM (active)
same,GI50,SK-MEL-28,> 83 µM (inactive)
same,GI50,SK-MEL-2,1.29 µM (inactive)
same,GI50,SK-MEL-5,0.908 µM (active)
same,GI50,SK-OV-3,1.64 µM (inactive)
same,GI50,SN12C,2.99 µM (inactive)
same,GI50,SNB-19,2.94 µM (inactive)
same,GI50,SNB-75,0.733 µM (active)
same,GI50,SR,0.548 µM (active)
same,GI50,SW-620,1.13 µM (inactive)
same,GI50,T47D,4.86 µM (inactive)
same,GI50,TK-10,1.31 µM (inactive)
same,GI50,U-251,0.94 µM (active)
same,GI50,UACC-257,0.792 µM (active)
same,GI50,UACC-62,1.16 µM (inactive)
same,GI50,UO-31,1.2 µM (inactive)
